Laboratory results published in patent US20200179428A1, “CYCLIC PHOSPHATE SUBSTITUTED NUCLEOSIDE DERIVATIVES AND METHODS OF USE THEREOF FOR THE TREATMENT OF VIRAL DISEASES” (priority 2016, published 2020).
Like-named read-outs stand apart in the source and are kept apart here.

Experiments:
Assay type in all cases: cell-based
[1] = tested on: replicon cells (1b-Con1); test: Replicon activity assay (replicon RNA level by real-time RT-PCR, Taqman); settings: HCV replicon genotype 1b, read-out: EC50 (1b) Range
How it was run: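 HCV 1b-Con1 replicon cells treated 3 days with 10-point twofold serial dilutions in triplicate (0.5% DMSO, 10% FBS); replicon RNA quantified by Taqman real-time RT-PCR normalised to GAPDH, EC50 derived. Cytotoxicity by MTS read-out at day 3 on identically treated cells.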

[2] = tested on: replicon cells; test: Cytotoxicity MTS assay (CellTiter 96 Aqueous One Solution) in replicon cells; settings: EDU; read-out: CC50 (EDU) Range
[3] = as above; settings: HCV replicon cells (1b-Con1); EDU; read-out: CC50 (EDU) Range

Compound	EC50 [1]	CC50 [2]	EC50 ([1]; Hepatitis C virus)	CC50 at 3 days [3]
C#C[C@@]1(O)[C@@H]2OP(=O)(OCC[C@@H](C)C(=O)OC(C)C)OC[C@H]2O[C@H]1n1ccc(=O)[nH]c1=O (single isomer, unassigned) [Compound 7B1]	0.25 to 1 µM	> 50 µM	–	–
C#C[C@]1(C)[C@@H]2O[P@@](=O)(OCC(CC(=O)OC(C)C)N(C)C(=O)OC(C)(C)C)OC[C@H]2O[C@H]1n1ccc(=O)[nH]c1=O (some centres unmarked) [Compound 74A2]	> 10 µM	> 50 µM	–	–
CC(C)OC(=O)[C@@H](C)CCOP1(=O)OC[C@H]2O[C@@H](n3ccc(=O)[nH]c3=O)[C@](C)(Cl)[C@@H]2O1 (single isomer, unassigned) [Compound 39B2]	0.25 to 1 µM	> 50 µM	–	–
CO[C@H](CCOP1(=O)OC[C@H]2O[C@@H](n3ccc(=O)[nH]c3=O)[C@](C)(Cl)[C@@H]2O1)C(=O)OC(C)C (some centres unmarked) [Compound 37B]	≤ 0.25 µM	> 50 µM	–	–
C#C[C@]1(C)[C@@H]2OP(=O)(OCC(C)CC(=O)OC(C)C)OC[C@H]2O[C@H]1n1ccc(=O)[nH]c1=O (single isomer, unassigned) [Compound 6B2]	1 to 10 µM	> 50 µM	–	–
C#C[C@@]1(O)[C@@H]2OP(=O)(OCCC(C)C(=O)OC3CCCC3)OC[C@H]2O[C@H]1n1ccc(=O)[nH]c1=O (single isomer, unassigned) [Compound 8B]	≤ 0.25 µM	> 50 µM	–	–
CC(CCOP1(=O)OC[C@H]2O[C@@H](n3ccc(=O)[nH]c3=O)[C@](C)(N)[C@@H]2O1)C(=O)OC1CCCC1 (single isomer, unassigned) [Compound 14B]	> 10 µM	> 50 µM	–	–
C#C[C@]1(C)[C@@H]2OP(=O)(OCC(C)CC(=O)OC(C)C)OC[C@H]2O[C@H]1n1ccc(=O)[nH]c1=O (single isomer, unassigned) [Compound 6A2]	> 10 µM	> 50 µM	–	–
C#C[C@]1(C)[C@@H]2OP(=O)(OCC(C)CC(=O)OC(C)C)OC[C@H]2O[C@H]1n1ccc(=O)[nH]c1=O (single isomer, unassigned) [Compound 6A1]	> 10 µM	> 50 µM	–	–
C#C[C@]1(C)[C@@H]2OP(=O)(OCC(C)CC(=O)OC(C)C)OC[C@H]2O[C@H]1n1ccc(=O)[nH]c1=O (single isomer, unassigned) [Compound 6B1]	1 to 10 µM	> 50 µM	–	–
CCOC(=O)C(C)CCOP1(=O)OC[C@H]2O[C@@H](n3ccc(=O)[nH]c3=O)[C@](C)(N)[C@@H]2O1 (single isomer, unassigned) [Compound 5B]	> 10 µM	> 50 µM	–	–
CC(C)OC(=O)C(C)CCOP1(=O)OC[C@H]2O[C@@H](n3ccc(=O)[nH]c3=O)[C@](C)(Cl)[C@@H]2O1 (some centres unmarked) [Compound 39B]	≤ 0.25 µM	> 50 µM	–	–
CC(C)OC(=O)C(CCOP1(=O)OC[C@H]2O[C@@H](n3ccc(=O)[nH]c3=O)[C@](C)(Cl)[C@@H]2O1)C(=O)OC(C)C (some centres unmarked) [Compound 38B]	≤ 0.25 µM	> 50 µM	–	–
CC(C)OC(=O)C(C)CCOP1(=O)OC[C@H]2O[C@@H](n3cnc4c(N)ncnc43)[C@](C)(Cl)[C@@H]2O1 (single isomer, unassigned) [Compound 35B]	≤ 0.25 µM	> 50 µM	–	–
CC(C)OC(=O)[C@@H](C)CCOP1(=O)OC[C@H]2O[C@@H](n3cnc4c(N)ncnc43)[C@](C)(Cl)[C@@H]2O1 (single isomer, unassigned) [Compound 35B1]	≤ 0.25 µM	> 50 µM	–	–
C#C[C@]1(C)[C@@H]2OP(=O)(OCCC(C(=O)OC(C)C)C(=O)OC(C)C)OC[C@H]2O[C@H]1n1ccc(=O)[nH]c1=O (single isomer, unassigned) [Compound 36B]	1 to 10 µM	> 50 µM	–	–
C#C[C@@]1(O)[C@@H]2OP(=O)(OCCC(C)C(=O)OC3CCCC3)OC[C@H]2O[C@H]1n1ccc(=O)[nH]c1=O (single isomer, unassigned) [Compound 8A2]	≤ 0.25 µM	> 50 µM	–	–
CC(C)OC(=O)C(C)CCOP1(=O)OC[C@H]2O[C@@H](n3ccc(=O)[nH]c3=O)[C@](C)(N)[C@@H]2O1 (single isomer, unassigned) [Compound 10B2]	> 10 µM	> 50 µM	–	–
CC(C)OC(=O)C(C)CCOP1(=O)OC[C@H]2O[C@@H](n3ccc(=O)[nH]c3=O)[C@](C)(N)[C@@H]2O1 (single isomer, unassigned) [Compound 10B]	> 10 µM	> 50 µM	–	–
C#C[C@@]1(O)[C@@H]2OP(=O)(OCCC(C)C(=O)OC(C)C)OC[C@H]2O[C@H]1n1ccc(=O)[nH]c1=O (some centres unmarked) [Compound 7B]	≤ 0.25 µM	> 50 µM	–	–
CC(C)OC(=O)C(C)CCOP1(=O)OC[C@H]2O[C@@H](n3cnc4c(N)ncnc43)[C@](C)(Cl)[C@@H]2O1 (single isomer, unassigned) [Compound 35B2]	≤ 0.25 µM	> 50 µM	–	–
CC(CCOP1(=O)OC[C@H]2O[C@@H](n3ccc(=O)[nH]c3=O)[C@](C)(N)[C@@H]2O1)C(=O)OC1CCCC1 (single isomer, unassigned) [Compound 14A2]	> 10 µM	> 50 µM	–	–

Compound	EC50 [1]	CC50 [2]	EC50 ([1]; Hepatitis C virus)	CC50 at 3 days [3]
C#C[C@@]1(O)[C@@H]2OP(=O)(OCCC(C)C(=O)OC3CCCC3)OC[C@H]2O[C@H]1n1ccc(=O)[nH]c1=O (single isomer, unassigned) [Compound 8B1]	≤ 0.25 µM	> 50 µM	–	–
C#C[C@@]1(O)[C@@H]2OP(=O)(OCC[C@H](C)C(=O)OC(C)C)OC[C@H]2O[C@H]1n1ccc(=O)[nH]c1=O (single isomer, unassigned) [Compound 7B2]	1 to 10 µM	> 50 µM	–	–
CC(C)OC(=O)C(C)CCOP1(=O)OC[C@H]2O[C@@H](n3ccc(=O)[nH]c3=O)[C@](C)(N)[C@@H]2O1 (single isomer, unassigned) [Compound 10A2]	> 10 µM	> 50 µM	–	–
CC(C)OC(=O)C(C)CCOP1(=O)OC[C@H]2O[C@@H](n3ccc(=O)[nH]c3=O)[C@](C)(N)[C@@H]2O1 (single isomer, unassigned) [Compound 10B1]	> 10 µM	> 50 µM	–	–
CC(CCO[P@]1(=O)OC[C@H]2O[C@@H](n3ccc(=O)[nH]c3=O)[C@](C)(N)[C@@H]2O1)CC(=O)OC(C)C (some centres unmarked) [Compound 21B]	–	–	> 10 µM	> 50 µM
CC(CCOP1(=O)OC[C@H]2O[C@@H](n3ccc(=O)[nH]c3=O)[C@](C)(N)[C@@H]2O1)C(=O)OC1CCCC1 (some centres unmarked) [Compound 14A]	–	–	> 10 µM	> 50 µM
CC(CCOP1(=O)OC[C@H]2O[C@@H](n3ccc(=O)[nH]c3=O)[C@](C)(N)[C@@H]2O1)C(=O)OC1CCCC1 (single isomer, unassigned) [Compound 14B1]	1 to 10 µM	> 50 µM	–	–
C#C[C@]1(C)[C@@H]2OP(=O)(OCC(C)CC(=O)OC3CCCC3)OC[C@H]2O[C@H]1n1ccc(=O)[nH]c1=O (single isomer, unassigned) [Compound 3B]	≤ 0.25 µM	> 50 µM	–	–
C#C[C@@]1(O)[C@@H]2OP(=O)(OCC[C@H](C)C(=O)OC(C)C)OC[C@H]2O[C@H]1n1ccc(=O)[nH]c1=O (single isomer, unassigned) [Compound 7A2]	0.25 to 1 µM	–	–	> 50 µM
C#C[C@@]1(O)[C@@H]2OP(=O)(OCC[C@H](C)C(=O)OC3CCCC3)OC[C@H]2O[C@H]1n1ccc(=O)[nH]c1=O (single isomer, unassigned) [Compound 8B2]	0.25 to 1 µM	> 50 µM	–	–
CC(C)OC(=O)CC(C)(C)CO[P@@]1(=O)OC[C@H]2O[C@@H](n3ccc(=O)[nH]c3=O)[C@](C)(N)[C@@H]2O1 [Compound 17A]	–	–	> 10 µM	> 50 µM
CC(C)OC(=O)CC(F)(F)CO[P@@]1(=O)OC[C@H]2O[C@@H](n3ccc(=O)[nH]c3=O)[C@](C)(N)[C@@H]2O1 [Compound 49A]	–	–	> 10 µM	> 50 µM
C#C[C@]1(C)[C@@H]2O[P@](=O)(OCCOCC(=O)OC(C)C)OC[C@H]2O[C@H]1n1ccc(=O)[nH]c1=O [Compound 68B]	–	–	1 to 10 µM	> 50 µM
C#C[C@]1(C)[C@@H]2O[P@@](=O)(OCCC(CC)C(=O)OC(C)C)OC[C@H]2O[C@H]1n1ccc(=O)[nH]c1=O (some centres unmarked) [Compound 31A]	–	–	0.25 to 1 µM	> 50 µM
CC(CCOP1(=O)OC[C@H]2O[C@@H](n3ccc(=O)[nH]c3=O)[C@](C)(N)[C@@H]2O1)C(=O)OC1CCCC1 (single isomer, unassigned) [Compound 14B2]	1 to 10 µM	> 50 µM	–	–
CC(C)OC(=O)C(C)(C)CO[P@]1(=O)OC[C@H]2O[C@@H](n3ccc(=O)[nH]c3=O)[C@](C)(N)[C@@H]2O1 [Compound 15B]	–	–	> 10 µM	> 50 µM
COC(=O)N[C@@H](CCO[P@@]1(=O)OC[C@H]2O[C@@H](n3ccc(=O)[nH]c3=O)[C@](C)(N)[C@@H]2O1)C(=O)OC(C)C [Compound 42A]	–	–	> 10 µM	> 50 µM
CC(C)OC(=O)CC(C)(C)CO[P@]1(=O)OC[C@H]2O[C@@H](n3ccc(=O)[nH]c3=O)[C@](C)(N)[C@@H]2O1 [Compound 17B]	–	–	> 10 µM	> 50 µM
CO[C@H](CO[P@]1(=O)OC[C@H]2O[C@@H](n3ccc(=O)[nH]c3=O)[C@](C)(N)[C@@H]2O1)CC(=O)OC(C)C [Compound 61B]	–	–	> 10 µM	> 50 µM
CCOC(=O)C1(CCO[P@]2(=O)OC[C@H]3O[C@@H](n4ccc(=O)[nH]c4=O)[C@](C)(N)[C@@H]3O2)CC1 [Compound 28B]	–	–	> 10 µM	> 50 µM
C#C[C@]1(C)[C@@H]2O[P@](=O)(OCCC(C(=O)OC(C)C)C(C)C)OC[C@H]2O[C@H]1n1ccc(=O)[nH]c1=O (some centres unmarked) [Compound 32B]	–	–	> 10 µM	> 50 µM
